{
  "source": "patent US20260224524A1",
  "about": "“A PHARMACEUTICAL COMPOSITION TARGETING MUTANT P53 AND HER2” (DR DOZO LABORATORIES, priority 2023, published 2026)",
  "key": {"[1]": {"tested_on": "Human Pancreatic Cancer Cell Line Mia-Pa-Ca-2", "test": "Growth inhibition (% control growth, LC50, TGI, GI50) Mia-Pa-Ca-2", "format": "cell-based", "conditions": "for GI50: Homo sapiens", "description": "The therapeutic effect of SA1 (peak 5) and SA2 (peak 4) is evaluated against human pancreatic cancer cell line Mia-Pa-Ca-2 by calculating the percentage growth inhibition, drug concentration of test compound needed to inhibit cell growth by 50% (GI50) values.\nThe therapeutic effect of SACC is evaluated against human […] cancer cell line Mia-Pa-Ca-2 by calculating the percentage growth inhibition, drug concentration of test compound needed to inhibit cell growth by 50% (GI50) values."}, "[2]": {"test": "Human tumour xenograft MDA-MB-231 model, animal body weight", "format": "in vivo, mice", "conditions": "for Animal Body Weight: Group B, 2.5 mg/kg i.v. day 1, 5, 9", "description": "The therapeutic effect of SACC is evaluated against triple-negative breast cancer cell line MDA-MB-231 by analysing tumour volume and relative tumour volume. The study involved the use of six mice. These mice were administrated treatment according to the following Groups: […]"}},
  "data": [
    {"compound": "COc1cccc2c1C(=O)c1c(O)c3c(c(O)c1C2=O)C[C@@](O)(C(=O)CO)C[C@@H]3O[C@H]1C[C@H](N)[C@H](O)[C@H](C)O1", "note": "[ADR, Adriamycin]", "values": [
      {"measurement": "GI50", "setting": "[1]; MIA PaCa-2, Mia-Pa-Ca-2, calculated from graph", "result": "< 10", "unit": "µg/mL"},
      {"measurement": "GI50", "setting": "[1]; MIA PaCa-2, Mia-Pa-Ca-2, Molar drug concentrations calculated from graph", "result": 4.75, "unit": "µg/mL"},
      {"measurement": "% Control Growth", "setting": "[1]; Mia-Pa-Ca-2, 10 μg/ml, Average Values", "result": "−89.7", "unit": "%"},
      {"measurement": "% Control Growth", "setting": "[1]; Mia-Pa-Ca-2, 10 μg/ml, Experiment 1", "result": "−88.7", "unit": "%"},
      {"measurement": "% Control Growth", "setting": "[1]; Mia-Pa-Ca-2, 10 μg/ml, Experiment 2", "result": "−89.2", "unit": "%"},
      {"measurement": "% Control Growth", "setting": "[1]; Mia-Pa-Ca-2, 10 μg/ml, Experiment 3", "result": "−91.2", "unit": "%"},
      {"measurement": "% Control Growth", "setting": "[1]; Mia-Pa-Ca-2, 20 μg/ml, Average Values", "result": "−91.1", "unit": "%"},
      {"measurement": "% Control Growth", "setting": "[1]; Mia-Pa-Ca-2, 20 μg/ml, Experiment 1", "result": "−91.3", "unit": "%"},
      {"measurement": "% Control Growth", "setting": "[1]; Mia-Pa-Ca-2, 20 μg/ml, Experiment 2", "result": "−90.4", "unit": "%"},
      {"measurement": "% Control Growth", "setting": "[1]; Mia-Pa-Ca-2, 20 μg/ml, Experiment 3", "result": "−91.5", "unit": "%"},
      {"measurement": "% Control Growth", "setting": "[1]; Mia-Pa-Ca-2, 40 μg/ml, Average Values", "result": "−91.5", "unit": "%"},
      {"measurement": "% Control Growth", "setting": "[1]; Mia-Pa-Ca-2, 40 μg/ml, Experiment 1", "result": "−91.4", "unit": "%"},
      {"measurement": "% Control Growth", "setting": "[1]; Mia-Pa-Ca-2, 40 μg/ml, Experiment 2", "result": "−92.3", "unit": "%"},
      {"measurement": "% Control Growth", "setting": "[1]; Mia-Pa-Ca-2, 40 μg/ml, Experiment 3", "result": "−91.0", "unit": "%"},
      {"measurement": "% Control Growth", "setting": "[1]; Mia-Pa-Ca-2, 80 μg/ml, Average Values", "result": "−84.7", "unit": "%"},
      {"measurement": "% Control Growth", "setting": "[1]; Mia-Pa-Ca-2, 80 μg/ml, Experiment 1", "result": "−84.1", "unit": "%"},
      {"measurement": "% Control Growth", "setting": "[1]; Mia-Pa-Ca-2, 80 μg/ml, Experiment 2", "result": "−87.5", "unit": "%"},
      {"measurement": "% Control Growth", "setting": "[1]; Mia-Pa-Ca-2, 80 μg/ml, Experiment 3", "result": "−82.3", "unit": "%"},
      {"measurement": "% Control Growth", "setting": "[1]; Mia-Pa-Ca-2, 10^−4M, Average Values", "result": "−89.6", "unit": "%"},
      {"measurement": "% Control Growth", "setting": "[1]; Mia-Pa-Ca-2, 10^−4M, Experiment 1", "result": "−88.2", "unit": "%"},
      {"measurement": "% Control Growth", "setting": "[1]; Mia-Pa-Ca-2, 10^−4M, Experiment 2", "result": "−89.7", "unit": "%"},
      {"measurement": "% Control Growth", "setting": "[1]; Mia-Pa-Ca-2, 10^−4M, Experiment 3", "result": "−91.0", "unit": "%"},
      {"measurement": "% Control Growth", "setting": "[1]; Mia-Pa-Ca-2, 10^−5M, Average Values", "result": "−87.8", "unit": "%"},
      {"measurement": "% Control Growth", "setting": "[1]; Mia-Pa-Ca-2, 10^−5M, Experiment 1", "result": "−88.7", "unit": "%"},
      {"measurement": "% Control Growth", "setting": "[1]; Mia-Pa-Ca-2, 10^−5M, Experiment 2", "result": "−87.4", "unit": "%"},
      {"measurement": "% Control Growth", "setting": "[1]; Mia-Pa-Ca-2, 10^−5M, Experiment 3", "result": "−87.3", "unit": "%"},
      {"measurement": "% Control Growth", "setting": "[1]; Mia-Pa-Ca-2, 10^−6M, Average Values", "result": "−75.8", "unit": "%"},
      {"measurement": "% Control Growth", "setting": "[1]; Mia-Pa-Ca-2, 10^−6M, Experiment 1", "result": "−77.3", "unit": "%"},
      {"measurement": "% Control Growth", "setting": "[1]; Mia-Pa-Ca-2, 10^−6M, Experiment 2", "result": "−75.7", "unit": "%"},
      {"measurement": "% Control Growth", "setting": "[1]; Mia-Pa-Ca-2, 10^−6M, Experiment 3", "result": "−74.5", "unit": "%"},
      {"measurement": "% Control Growth", "setting": "[1]; Mia-Pa-Ca-2, 10^−7M, Average Values", "result": "−60.2", "unit": "%"},
      {"measurement": "% Control Growth", "setting": "[1]; Mia-Pa-Ca-2, 10^−7M, Experiment 1", "result": "−3.2", "unit": "%"},
      {"measurement": "% Control Growth", "setting": "[1]; Mia-Pa-Ca-2, 10^−7M, Experiment 2", "result": "−88.2", "unit": "%"},
      {"measurement": "% Control Growth", "setting": "[1]; Mia-Pa-Ca-2, 10^−7M, Experiment 3", "result": "−89.3", "unit": "%"},
      {"measurement": "TGI", "setting": "[1]; Mia-Pa-Ca-2, Molar drug concentrations calculated from graph", "result": 4.69, "unit": "µg/mL"},
      {"measurement": "TGI", "setting": "[1]; Mia-Pa-Ca-2, calculated from graph", "result": "<10", "unit": "µg/mL"},
      {"measurement": "Animal Body Weight", "setting": "[2]; day 1", "result": 20.9, "unit": "Grams"},
      {"measurement": "Animal Body Weight", "setting": "[2]; day 5", "result": 19.9, "unit": "Grams"},
      {"measurement": "Animal Body Weight", "setting": "[2]; day 9", "result": 20.3, "unit": "Grams"},
      {"measurement": "Animal Body Weight", "setting": "[2]; day 12", "result": 20.1, "unit": "Grams"},
      {"measurement": "Animal Body Weight", "setting": "[2]; day 15", "result": 19.5, "unit": "Grams"},
      {"measurement": "Animal Body Weight", "setting": "[2]; day 18", "result": 20.4, "unit": "Grams"},
      {"measurement": "Animal Body Weight", "setting": "[2]; day 21", "result": 20.0, "unit": "Grams"},
      {"measurement": "Animal Body Weight", "setting": "[2]; day 25", "result": 20.2, "unit": "Grams"},
      {"measurement": "Animal Body Weight", "setting": "[2]; day 30", "result": 21.6, "unit": "Grams"},
      {"measurement": "change in body weight (in words)", "setting": "[2]; average body weight over 30 days", "result": "minimal change in body weight"}
    ]}
  ]
}
